Converted amounts (≈) assume the structure as drawn. Read-outs that look alike come from different tables or passages of the source.
What was measured:
[1] = tested on: Staphylococcus aureus CJ9; assay: Susceptibility of β-lactamase producing bacterial strains to β-lactam antibiotics in 1:1 combination (Table II); type: cell-based
[2] = tested on: Staphylococcus aureus CJ145; assay: as above; type: cell-based
[3] = tested on: Escherischia coli HA58 (RTEM); assay: organism not typed; type: cell-based
[4] = tested on: Klebsiella pneumoniae HE7; assay: Susceptibility of β-lactamase producing bacterial strains to β-lactam antibiotics in 1:1 combination (Table II); type: cell-based
[5] = tested on: Proteus mirabilis HJ28; assay: as above; type: cell-based
[6] = tested on: β-lactamases; settings: well known; cited from earlier work
[7] = as such or as hydrochloride; cited from earlier work
[8] = serial dilution in agar medium, inoculum 10^5 CFU, alone or in 1:1 combination (value of each partner), read-out: IC50
[9] = serial dilution in agar medium, inoculum 10^4 CFU, alone or in 1:1 combination (value of each partner), read-out: IC50

Structure (SMILES) | MIC [1, 8] | IC50 [2, 8] | minimum inhibitory concentration (MIC) [3] | IC50 [4, 9] | minimum inhibitory concentration (MIC) [5, 9] | MIC [1] | IC50 [2] | IC50 [4] | sensitivity to β-lactamases [6] | minimum inhibitory concentration (MIC) [5] | concentration of benzylpenicillin in the udder [7] | effect in the treatment of mastitis [7]
CC1(C)S[C@@H]2[C@H](NC(=O)[C@H](N)c3ccccc3)C(=O)N2[C@H]1C(=O)O [Ampicillin] | 10 µg/mL | 1.6 µg/mL | > 100 µg/mL | > 50 µg/mL | > 50 µg/mL | – | – | – | – | – | – | –
CC1(C)S[C@@H]2[C@H](NC(=O)Cc3ccccc3)C(=O)N2[C@H]1C(=O)O [Benzylpenicillin] | – | – | > 100 µg/mL | – | – | > 100 µg/mL | 10 µg/mL | > 100 µg/mL | very sensitive to β-lactamases | > 100 µg/mL | – | –
CC1(C)S[C@@H]2[C@H](/N=C/N3CCCCCC3)C(=O)N2[C@H]1C(=O)O [Mecillinam] | > 50 µg/mL | > 50 µg/mL | 1.3 µg/mL (≈ 3.99 µM) | > 25 µg/mL | 6.3 µg/mL | – | – | – | – | – | – | –
CCN(CC)CCOC(=O)[C@@H]1N2C(=O)[C@@H](NC(=O)Cc3ccccc3)[C@H]2SC1(C)C [Penethamate] | – | – | – | – | – | – | – | – | – | – | rapid and high concentration of benzylpenicillin in the udder | very effective in the treatment of mastitis

Source: US4594246A, “Pharmaceutically-acceptable amine salts of 6-β-halopenicillanic acids” (Leo Pharmaceutical Products, priority 1979, dated 1986)
